{"source": "patent US7348152B2", "about": "“Rhamnose binding protein” (Solbec Pharmaceutical Limited, priority 2002, dated 2008)", "key": {"[1]": {"system": "rhamnose binding protein (RBP)", "assay": "Dissociation constant of the receptor estimated from the cytotoxicity functions", "conditions": "read-out: dissociation constant of RBP when bound to the rhamnose moiety of solamargine", "method": "Given that the evaluation of the cytotoxicities for different cell lines needed to be conducted using different sized cell populations, it was considered prudent to determine the effect, if any, of cell number on the measured value of LD50. Five cell lines, HT-29, LS174-T, 5637, A431 and MCF-7 were evaluated at four different seeding cell densities. Hs578T and CCD 18Lu were evaluated at three seeding densities and Hs578Bst, both early and late passage cells, were evaluated at two seeding densities.\nIn order that the full range of cell densities be evaluated with at least one cell line, a 3-day version of the cytotoxicity was developed. The cell lines involved were recalibtrated for the 3-day format. Multiwell plates were seeded on day 1. Cells were treated with BEC® on day 2 and MTT was added twenty four hours later.\nComparing the two fitted functions, two distinct regions are discernable (FIG. 8). […] We estimate that the dissociation constant for this receptor is likely to be of the order of 1.5×10^−6 M."}, "A2058 cells [2]": {"system": "A2058 cells", "assay": "Staining of cells with fluorescein tagged rhamnose probe (FRITC)", "format": "cell-based", "method": "A2058 cells were coated at low density in a microscope compatible chamber. The cells were washed with HBS^2+ then incubated with FRITC (top concentration of DMSO=2.5%) for 5-15 min at 37° C. The FRITC was removed, the cells washed twice with HBS^2+ and examined under a visible light microscope. The incubation was repeated with 0-100 μM fluorescein-amine, and for 25 and 6 μM FRITC using a 10^3× excess of unlabelled rhamnose.\nA fluorescein tagged rhamnose probe (FRITC) was prepared as previously described and used to stain A2058 cells.\nFRITC at concentrations from 3-25 μM was incubated with A2058 cells for 15 minutes at 37° C."}, "A2058 cells [3]": {"system": "A2058 cells", "assay": "Co-administration of BEC® and rhamnose, cell survival", "format": "cell-based", "conditions": "5 mM rhamnose, 5000 cells, 5 minutes and 4 days", "method": "A2058 cells at two different cell densities were treated with BEC® +/−rhamnose and cell survival was monitored after 4 days. The treatments comprised: (i) BEC® only for 4 days (ii) BEC® only for 5 minutes (iii) BEC® and 5 mM rhamnose for 4 days and (iv) BEC® and 5 mM rhamnose for 5 minutes."}, "RBP bearing cells": {"system": "RBP bearing cells", "assay": "Cell adhesion between RBP bearing cells", "format": "cell-based", "conditions": "RBP binds ligand"}}, "data": [{"molecule": "C[C@@H]1CC[C@@]2(NC1)O[C@H]1C[C@H]3[C@@H]4CC=C5C[C@@H](O[C@@H]6O[C@H](CO)[C@@H](O[C@@H]7O[C@@H](C)[C@H](O)[C@@H](O)[C@H]7O)[C@H](O)[C@H]6O[C@@H]6O[C@@H](C)[C@H](O)[C@@H](O)[C@H]6O)CC[C@]5(C)[C@H]4CC[C@]3(C)[C@H]1[C@@H]2C", "note": "[solamargine]", "values": [{"measurement": "Kd", "setting": "[1]", "value": "~1500", "unit": "nM"}]}, {"molecule": "C[C@H](O)[C@H](O)[C@@H](O)[C@@H](O)C=O", "note": "[rhamnose]", "values": [{"measurement": "inhibition of FRITC staining", "setting": "A2058 cells [2]; co-incubation with free rhamnose at 10 mM", "value": "staining could be inhibited"}, {"measurement": "rhamnose competition with BEC® uptake (protective effect)", "setting": "A2058 cells [3]", "value": "affects the amount of BEC® taken up by the cells"}, {"measurement": "cell adhesion of RBP bearing cells", "setting": "RBP bearing cells", "value": "inhibited"}]}, {"molecule": "Fluorescein Rhamnose-ITC [FRITC]", "values": [{"measurement": "fluorescent staining of cells", "setting": "A2058 cells [2]; FRITC 3-25 μM, 15 minutes at 37° C.", "value": "found to fluoresce"}]}]}
